Measurements taken from US11479802B2, “Assays for screening activity of modulators of members of the hydroxy steroid (17-beta) dehydrogenase (HSD17B) family” (Regeneron Pharmaceuticals, Inc., priority 2017, dated 2022).

Biological target: T1, human HSD17B13 (Homo sapiens, UniProt Q7Z5P4)
T1 sequence (Q7Z5P4 20-300): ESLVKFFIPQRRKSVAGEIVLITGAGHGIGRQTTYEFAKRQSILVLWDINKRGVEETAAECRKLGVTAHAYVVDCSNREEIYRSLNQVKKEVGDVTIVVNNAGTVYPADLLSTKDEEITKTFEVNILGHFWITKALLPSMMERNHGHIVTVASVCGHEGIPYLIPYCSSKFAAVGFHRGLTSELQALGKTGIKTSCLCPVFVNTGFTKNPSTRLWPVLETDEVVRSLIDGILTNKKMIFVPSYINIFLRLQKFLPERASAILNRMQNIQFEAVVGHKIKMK
Test: Substrate screening of steroid and bioactive lipid libraries against purified recombinant HSD17B13 (NADH-linked luciferase assay)
Assay type: biochemical
Details: for HSD17B13 Enzymatic Activity Relative Light Units: 500 μM NAD+, 100 ng enzyme, 3 hours at 23° C.; for HSD17B13 Enzymatic Activity Percent Estradiol Control: normalized to 50 μM estradiol after subtraction of 5% DMSO
Description: To understand the functional consequences of premature truncation of the HSD17B13 protein due to rs72613567:TA (the associated variant, rs72613567, is an insertion of an adenine adjacent to the donor splice site of exon six (TA allele)), the enzymatic activity of isoforms A and D was evaluated in vitro using recombinant protein and nicotinamide […] dinucleotide as cofactor. Reactions were performed in a final volume of 40 μl of assay buffer (0.2 M Tris-HCl, pH 7.5) which contained 500 μM NAD^+, 5 μM bioactive lipid or 50 μM steroid (all in a final concentration of 5% DMSO), and 100 ng of recombinant human HSD17B13. Reactions were incubated for 3 hours, at 23° C., after which an equal volume detection reagent was added. Following a 1 hour incubation at 23° C., the relative light units (RLUs) were measured on an Envision Plate Reader (Perkin Elmer). Raw RLU values were normalized as percent of control (50 μM estradiol) following subtraction of negative control (5% DMSO) using the following formula: Percent of control (POC)=100×(Sample (RLU)−Negative CTRLaverage)/(Positive CTRLaverage−Negative CTRLaverage).

[1] = Bioactive Lipid Library, 5 μM bioactive lipid (Estradiol Control 50 μM)
[2] = Bioactive Lipid Library, 5 μM bioactive lipid

| Compound | HSD17B13 Enzymatic Activity Relative Light Units [1] | HSD17B13 Enzymatic Activity Percent Estradiol Control [2] | HSD17B13 Enzymatic Activity Relative Light Units (Steroid Library, 50 μM steroid) | HSD17B13 Enzymatic Activity Percent Estradiol Control (Steroid Library, 50 μM steroid) |
| --- | --- | --- | --- | --- |
| CC/C=C\C[C@H](O)/C=C/[C@@H]1[C@@H](C/C=C\CCCC(=O)O)[C@@H](O)C[C@H]1O [Prostaglandin F3α] | 385360 RLU | 8.08% |  |  |
| CCCCC/C=C\C=C\[C@@H](O)CCCCCCCC(=O)O [9(S)-HODE] | 539560 RLU | 18.79% |  |  |
| CCCCC[C@@H](/C=C/C=C\CCCCCCCCCC(=O)O)OO [15(S)-HpEDE] | 232720 RLU | −4.02% |  |  |
| CC/C=C\C/C=C\C=C\[C@@H](O)CCCCCCCC(=O)O [9(S)-HOTrE] | 586800 RLU | 22.31% |  |  |
| CC(=O)OC1=CC[C@H]2[C@@H]3CC[C@H]4CC=CC[C@]4(C)[C@H]3CC[C@]12C [5alpha-Androsta-2,16-dien-17-yl acetate] |  |  | 197640 RLU | 0.65% |
| CC/C=C\C/C=C\C/C=C\C[C@H](O)/C=C/C=C\CCCC(=O)O [9(S)-HEPE] | 564200 RLU | 20.63% |  |  |
| CC(=O)[C@H]1CC[C@H]2[C@@H]3CCC4=CC(=O)CC[C@]4(C)[C@H]3CC[C@]12C [Progesterone] |  |  | 175680 RLU | 0.26% |
| CC(C)OC(=O)CCC/C=C/C[C@@H]1[C@@H](/C=C/[C@@H](O)COc2cccc(C(F)(F)F)c2)[C@H](O)C[C@@H]1O (relative stereo) [5-trans Fluprostenol isopropyl ester] | 551400 RLU | 21.21% |  |  |
| Prostaglandin D2-biotin | 367880 RLU | 3.24% |  |  |
| CC(=O)OCC(=O)[C@@]1(O)CC[C@H]2[C@@H]3CCC4=CC(=O)CC[C@]4(C)[C@H]3C(=O)C[C@@]21C [Cortisone 21-acetate] |  |  | 200240 RLU | 0.69% |
| CCCCC/C=C\C[C@H](O)/C=C/C=C\C/C=C\CCCC(=O)O (racemic) [(±)12-HETE] | 1324640 RLU | 77.17% |  |  |
| CC/C=C\C/C=C\C/C=C\CC(O)/C=C/C=C\CCCC(=O)O (racemic) [(±)9-HEPE] | 699960 RLU | 30.72% |  |  |
| [2H]C([2H])(/C=C\C[C@H]1[C@@H](O)CC(=O)O[C@@H]1/C=C/[C@@H](O)CCCCC)C([2H])([2H])CC(=O)O [11-dehydro Thromboxane B2-d4] | 366280 RLU | 3.11% |  |  |
| CCCCC/C=C\C/C=C\C/C=C\C=C\[C@@H](O)CCCC(=O)O [5(S)-HETE] | 430800 RLU | 10.71% |  |  |
| CCCCCC(O)/C=C/C=C\CCCCCCCCCC(=O)O (racemic) [(±)15-HEDE] | 1430720 RLU | 85.06% |  |  |
| C[C@]12Cc3c[nH]nc3C[C@@H]1CC[C@@H]1[C@@H]2CC[C@@]2(C)[C@H]1CC[C@]2(C)O [Stanazol] |  |  | 140840 RLU | −0.35% |
| CC/C=C\CC(O)/C=C/C=C\C/C=C\C/C=C\C/C=C\CCC(=O)O (racemic) [(±)17-HDHA] | 492440 RLU | 15.29% |  |  |
| CC[C@H]1O[C@H]1C/C=C\C/C=C\C/C=C\C/C=C\C/C=C\CCC(=O)O (racemic) [(±)19(20)-EpDPA] | 300600 RLU | 1.38% |  |  |
| CCCCC/C=C\CC(/C=C/C=C\C/C=C\CCCC(=O)O)OO (racemic) [(±)12-HpETE] | 165800 RLU | −9.27% |  |  |

| Compound | HSD17B13 Enzymatic Activity Relative Light Units [1] | HSD17B13 Enzymatic Activity Percent Estradiol Control [2] | HSD17B13 Enzymatic Activity Relative Light Units (Steroid Library, 50 μM steroid) | HSD17B13 Enzymatic Activity Percent Estradiol Control (Steroid Library, 50 μM steroid) |
| --- | --- | --- | --- | --- |
| C[C@@H](O)CCC[C@@H](O)/C=C/[C@@H]1[C@@H](C/C=C\CCCC(=O)O)[C@@H](O)C[C@H]1O [15(R),19(R)-hydroxy Prostaglandin F2α] | 382720 RLU | 7.88% |  |  |
| CCCCC[C@H](O)/C=C/[C@H]1[C@@H](O)CC(=O)[C@@H]1C/C=C\CCCC(=O)O [11β-Prostaglandin E2] | 354840 RLU | 5.67% |  |  |
| CC/C=C\C/C=C\C/C=C\C/C=C\C=C\[C@@H](O)CCCC(=O)O [5(S)-HEPE] | 429120 RLU | 10.58% |  |  |
| CCCCCCCC/C=C(\CCCCCCCC(=O)O)[N+](=O)[O-] [9-Nitrooleate] | 31600 RLU | −22.16% |  |  |
| CCCCC[C@H](O)/C=C/[C@H]1[C@H](O)CC(=O)[C@@H]1C/C=C\CCCC(=O)NCCCCCNC(=O)CCCC[C@H]1SC[C@@H]2NC(=O)N[C@@H]21 [Prostaglandin E2-biotin] | 389960 RLU | 4.90% |  |  |
| CCCCCC=CCC=CCC=CCC(O)C(O)CCCC(=O)O (racemic) [(±)5(6)-DiHET] | 353120 RLU | 4.93% |  |  |
| CCCCC[C@H](O)/C=C/C=C\C/C=C\CCCCC(=O)O [13(S)-HOTrE(γ)] | 458840 RLU | 12.79% |  |  |
| CC/C=C\C[C@H](O)/C=C/C=C\CCCCCCCC(=O)O [13(S)-HOTrE] | 528240 RLU | 17.95% |  |  |
| CC/C=C\C/C=C\CC(O)/C=C/C=C\C/C=C\CCCC(=O)O (racemic) [(±)12-HEPE] | 761600 RLU | 35.30% |  |  |
| D-myo-Inositol-1,2,3,4-tetraphosphate (sodium salt) | 447960 RLU | 9.28% |  |  |
| CCCCC/C=C\C=C\[C@H](O)C/C=C\C/C=C\CCCC(=O)O [11(R)-HETE] | 1064120 RLU | 57.80% |  |  |
| C[C@]12CCC(=O)C[C@@H]1CC[C@@H]1[C@@H]2C(=O)C[C@]2(C)C(=O)CC[C@@H]12 [5alpha-Androstane-3,11,17-trione] |  |  | 228280 RLU | 1.18% |
| CCC(O)/C=C/C=C\C/C=C\C/C=C\C/C=C\C/C=C\CCC(=O)O (racemic) [(±)20-HDHA] | 1400640 RLU | 82.82% |  |  |
| 15-deoxy-Δ12,14-Prostaglandin J2-biotin | 252400 RLU | −2.43% |  |  |
| CCCCC[C@H](O)/C=C/[C@H]1CC2CC(C2)[C@@H]1C/C=C\CCCC(=O)O [Carbocyclic Thromboxane A2] | 309000 RLU | 2.05% |  |  |
| Cholesteryl Linoleate Hydroperoxides | 256120 RLU | −2.28% |  |  |
| CN(C)C(=O)CCSC(SCCC(=O)O)c1cccc(/C=C/c2ccc3ccc(Cl)cc3n2)c1 (centres unmarked) [MK-571] | 281520 RLU | −0.12% |  |  |
| CCCCC/C=C\C\C=C/C=C/C=C/[C@@H]1O[C@H]1CCCC(=O)OC [Leukotriene A4 methyl ester] | 463120 RLU | 14.23% |  |  |
